{"source": "paper PMC6419424", "about": "“Rational protein design of Bacillus sp. MN chitosanase for altered substrate binding and production of specific chitosan oligomers” (Journal of Biological Engineering, 2019)", "molecular_target": "T1, CSN (BspCsnMN) (Bacillus sp. MN, UniProt H9CXV8)", "T1 construct": "GH8 chitosanase (EC 3.2.1.132), Strep-tag II fusion (pET-22b(+)::StrepII-csn), expressed in E. coli Rosetta 2 (DE3), Strep-Tactin purified", "T1 sequence (H9CXV8 entry or part of it)": "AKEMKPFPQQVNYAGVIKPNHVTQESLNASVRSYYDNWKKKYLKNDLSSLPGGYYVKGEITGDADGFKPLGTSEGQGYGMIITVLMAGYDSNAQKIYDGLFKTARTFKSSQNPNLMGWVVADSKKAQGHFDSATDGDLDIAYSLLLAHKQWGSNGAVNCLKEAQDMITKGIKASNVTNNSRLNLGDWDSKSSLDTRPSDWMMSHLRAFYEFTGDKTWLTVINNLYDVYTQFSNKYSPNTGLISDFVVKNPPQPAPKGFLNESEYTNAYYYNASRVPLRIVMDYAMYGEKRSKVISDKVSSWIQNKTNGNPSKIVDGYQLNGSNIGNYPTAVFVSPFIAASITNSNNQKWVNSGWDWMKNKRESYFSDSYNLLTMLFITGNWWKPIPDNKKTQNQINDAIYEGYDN", "test": "UHPLC-ELSD-ESI-MS product quantification, Hill fit", "type": "biochemical", "details": "40 mM sodium acetate pH 6, 30 °C, 10 min", "data": [{"smiles": "N[C@H]1[C@H](O[C@H]2[C@H](O)[C@@H](N)[C@H](O[C@H]3[C@H](O)[C@@H](N)[C@H](O[C@H]4[C@H](O)[C@@H](N)[C@H](O[C@H]5[C@H](O)[C@@H](N)C(O)O[C@@H]5CO)O[C@@H]4CO)O[C@@H]3CO)O[C@@H]2CO)O[C@H](CO)[C@@H](O)[C@@H]1O", "note": "(stereo partly shown) [D5]", "values": [{"measurement": "UHPLC-ELSD-ESI-MS product quantification, Hill fit", "result": "CSN showed high activity on the polymer, and it was even slightly more active on D5"}]}]}
